US12612412B2, “Antiviral heterocyclic compounds” (Enanta Pharmaceuticals, Inc., priority 2021, dated 2026)
Read-outs that look alike come from different tables or passages of the source.

Assays:
[1] = system: genotype A, "Long" strain RSV; experiment: RSV-A assay (CPE protection in Hep-2 cells, ATPlite readout); format: cell-based, Human respiratory syncytial virus (HRSV); details: human respiratory syncytial virus, MOI 0.1, CPE protection
In short: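 Hep-2 cells (8,000/well) infected with RSV Long strain at MOI 0.1 in the presence of 2-fold compound dilutions in duplicate. After 5 days, cell viability measured by ATPlite luminescence, normalized between virus-only and uninfected cell controls; EC50 reported.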

[2] = system: HMPV clinical isolate TN/1501/A1; experiment: HMPV antiviral assay Method-B (clinical isolate TN/1501/A1 in LLC-MK2 cells, ATP-Lite readout); format: cell-based, Human metapneumovirus (HMPV); details: human metapneumovirus, LLC-MK2, 144 h, hMPV WT1501 (clinical isolate TN/1501/A1), 6 days
In short: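 LLC-MK2 cells infected in suspension with TN/1501/A1 at MOI 0.014 in serum-free medium with 2 μg/mL TPCK-trypsin (final), incubated 6 days at 37° C. Compounds tested in duplicate, 10-point 3-fold dilutions from 10 μM. Cell health read by ATP-Lite luminescence, normalised to virus-only and cells-only controls; EC50 by four-parameter logistic fit.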

[3] = genotype A “Long” strain RSV, read-out: Human RSV-A (“Long”)
[4] = RSV-A Long strain, read-out: Human RSV-A (“Long”) EC50

| Compound | EC50 [1, 3] [nM] | EC50 [2] [nM] | EC50 [1, 4] [nM] |
| --- | --- | --- | --- |
| COc1cc(C(=O)NC[C@](O)(c2cc3c(c(-c4cc(F)c(F)c(Cl)c4)n2)OC[C@]3(C)C(N)=O)C(F)(F)F)cc2cc(Cl)c(C)nc12 [Example 784] | < 200 | < 500 |  |
| COc1cc(C(=O)NC[C@](O)(c2cc3c(c(-c4cc(F)c(F)c(Cl)c4)n2)OC[C@]3(C)C(N)=O)C(F)(F)F)cc2cc(Br)cnc12 [Example 785] | < 200 | < 500 |  |
| COc1cc(C(=O)NC[C@](O)(c2cc3c(c(-c4cc(F)c(F)c(Cl)c4)n2)OC[C@]3(C)C(N)=O)C2CC2)cc2cc(Cl)c(C)nc12 [Example 786] | < 200 | < 500 |  |
| COc1cc(C(=O)NC[C@](O)(c2cc3c(c(-c4cc(F)c(F)c(Cl)c4)n2)OC[C@]3(C)C(N)=O)C2CC2)cc2cn(C3CC3)nc12 [Example 787] | < 200 | < 500 |  |
| COc1cc(C(=O)NC[C@](O)(c2cc3c(c(-c4cc(F)c(F)c(Cl)c4)n2)OC[C@]3(C)C(N)=O)C2CC2)cc2cn(C(F)F)nc12 [Example 788] | < 200 | < 500 |  |
| COc1cc(C(=O)NC[C@](O)(c2cc3c(c(-c4cc(F)c(F)c(Cl)c4)n2)OC[C@]3(C)C(N)=O)C2CC2)cc2cc(Br)cnc12 [Example 789] | < 200 | < 500 |  |
| C[C@]1(C(N)=O)COc2c1cc([C@@](O)(CNC(=O)c1cc(Cl)c3nn(C4CC4)cc3c1)C1CC1)nc2-c1cc(F)c(F)c(Cl)c1 [Example 790] | < 200 | < 500 |  |
| COc1cc(C(=O)NC[C@](O)(c2cc3c(c(-c4cc(F)c(F)c(Cl)c4)n2)OC[C@]3(C)C(N)=O)C2CC2)cc2cn(C3(F)CC3)nc12 [Example 791] | < 200 | < 500 |  |
| Cc1cnc2c(Cl)cc(C(=O)NC[C@](O)(c3cc4c(c(-c5cc(F)c(F)c(Cl)c5)n3)OC[C@]4(C)C(N)=O)C3CC3)cc2c1 [Example 792] | < 200 | < 500 |  |
| COc1cc(C(=O)NC[C@](O)(c2cc3c(c(-c4ccc(C(F)(F)F)cc4)n2)OC[C@]3(C)C(N)=O)C2CC2)cc2cn(C3CC3)nc12 [Example 793] | < 200 | < 500 |  |
| COc1cc(C(=O)NC[C@](O)(c2cc3c(c(-c4ccc(C(F)(F)F)cc4)n2)OC[C@]3(C)C(N)=O)C2CC2)cc2cn(C3(F)CC3)nc12 [Example 794] | < 200 | < 500 |  |
| C[C@]1(C(N)=O)COc2c1cc([C@@](O)(CNC(=O)c1cc(Cl)c3nn(C4CC4)cc3c1)C1CC1)nc2-c1ccc(C(F)(F)F)cc1 [Example 795] | < 200 | > 500 |  |
| COc1cc(C(=O)NC[C@](O)(c2cc3c(c(-c4ccc(C(F)(F)F)cc4)n2)OC[C@]3(C)C(N)=O)C2CC2)cc2cn(C(F)F)nc12 [Example 796] | < 200 | < 500 |  |
| Cc1cnc2c(Cl)cc(C(=O)NC[C@](O)(c3cc4c(c(-c5ccc(C(F)(F)F)cc5)n3)OC[C@]4(C)C(N)=O)C3CC3)cc2c1 [Example 798] | < 200 | < 500 |  |
| COc1cc(C(=O)NC[C@](O)(c2cc3c(c(-c4ccc(F)c(Br)c4F)n2)OC[C@]3(C)C(N)=O)C2CC2)cc2cn(C3CC3)nc12 [Example 799] | < 200 | < 500 |  |
| C[C@]1(C(N)=O)COc2c1cc([C@@](O)(CNC(=O)c1cc(Cl)c3nn(C4CC4)cc3c1)C1CC1)nc2-c1ccc(F)c(Br)c1F [Example 800] | < 200 | < 500 |  |
| COc1cc(C(=O)NC[C@](O)(c2cc3c(c(-c4ccc(F)c(Br)c4F)n2)OC[C@]3(C)C(N)=O)C2CC2)cc2cn(C(F)F)nc12 [Example 801] | < 200 | < 500 |  |
| COc1cc(C(=O)NC[C@](O)(c2cc3c(c(-c4ccc(F)c(Br)c4F)n2)OC[C@]3(C)C(N)=O)C2CC2)cc2cn(C3(F)CC3)nc12 [Example 802] | < 200 | < 500 |  |
| COc1cc(C(=O)NC[C@](O)(c2cc3c(c(-c4ccc(F)c(Cl)c4)n2)OC[C@]3(C)C(N)=O)C2CC2)ccc1OC1CC1 [Example 811] | < 200 | < 500 |  |
| C[C@]1(C(N)=O)COc2c1cc([C@@](O)(CNC(=O)c1ccc3nn(C4CC4)cc3c1)C1CC1)nc2-c1ccc(F)c(Cl)c1 [Example 815] | < 200 | < 500 |  |
| COc1cc(C(=O)NC[C@](O)(c2cc3c(c(-c4ccc5c(c4)OC(F)(F)O5)n2)OC[C@]3(C)C(N)=O)C2CC2)cc2cn(C3CC3)nc12 [Example 816] | < 200 | < 500 |  |
| COc1cc(C(=O)NC[C@](O)(c2cc3c(c(-c4ccc5c(c4)OC(F)(F)O5)n2)OC[C@]3(C)C(N)=O)C(F)(F)F)ccc1OC1CC1 [Example 817] | < 200 | < 500 |  |
| C[C@@H](O)COc1ccc(C(=O)NC[C@](O)(c2cc3c(c(-c4ccc5c(c4)OC(F)(F)O5)n2)OC[C@]3(C)C(N)=O)C(F)(F)F)cc1OC1CC1 [Example 818] | < 200 | < 500 |  |

| Compound | EC50 [1, 3] [nM] | EC50 [2] [nM] | EC50 [1, 4] [nM] |
| --- | --- | --- | --- |
| C[C@]1(C(N)=O)COc2c1cc([C@@](O)(CNC(=O)c1ccc3nn(C4CC4)cc3c1)C(F)(F)F)nc2-c1ccc2c(c1)OC(F)(F)O2 [Example 819] | < 200 | < 500 |  |
| COc1cc(C(=O)NC[C@](O)(c2cc3c(c(-c4ccc(F)cc4)n2)OC[C@]3(C)C(N)=O)C(F)(F)F)cc2cn(C3(F)CC3)nc12 [Example 820] | < 200 | < 500 |  |
| COc1cc(C(=O)NC[C@](O)(c2cc3c(c(-c4ccc(F)cc4)n2)OC[C@]3(C)C(N)=O)C(F)(F)F)cc2cn(C3(O)CC3)nc12 [Example 821] | < 200 | > 500 |  |
| C[C@]1(C(N)=O)COc2c1cc([C@@](O)(CNC(=O)c1cc(OC3CC3)n3nc(C4CC4)cc3c1)C1CC1)nc2-c1ccc2c(c1)OC(F)(F)O2 [Example 822] | < 200 | < 500 |  |
| COc1cc(C(=O)NC[C@](O)(c2cc3c(c(-c4ccc5c(c4)OC(F)(F)O5)n2)OC[C@]3(C)C(N)=O)C2CC2)cc2cn(C(F)F)nc12 [Example 823] | < 200 | < 500 |  |
| C[C@]1(C(N)=O)COc2c1cc([C@@](O)(CNC(=O)c1ccn3nc(C4CC4)cc3c1)C1CC1)nc2-c1ccc2c(c1)OC(F)(F)O2 [Example 824] | < 200 | < 500 |  |
| COc1cc(C(=O)NC[C@](O)(c2cc3c(c(-c4ccc5c(c4)OC(F)(F)O5)n2)OC[C@]3(C)C(N)=O)C2CC2)cc2cc(Cl)c(C)nc12 [Example 825] | < 200 | < 500 |  |
| COc1cc(C(=O)NC[C@](O)(c2cc3c(c(-c4ccc5c(c4)OC(F)(F)O5)n2)OC[C@]3(C)C(N)=O)C2CC2)cc2cc(C3CC3)nn12 [Example 826] | < 200 | < 500 |  |
| C[C@]1(C(N)=O)COc2c1cc([C@@](O)(CNC(=O)c1cc(F)c3nc(N)sc3c1)C1CC1)nc2-c1ccc2c(c1)OC(F)(F)O2 [Example 827] |  | < 500 | < 200 |
| COc1cc(C(=O)NC[C@](O)(c2cc3c(c(-c4ccc5c(c4)OC(F)(F)O5)n2)OC[C@]3(C)C(N)=O)C2CC2)cn2cc(C3CC3)nc12 [Example 828] |  | < 500 | < 200 |
| C[C@@H](O)COc1ccc(C(=O)NC[C@](O)(c2cc3c(c(-c4ccc5c(c4)OC(F)(F)O5)n2)OC[C@]3(C)C(N)=O)C2CC2)cc1OC1CC1 [Example 829] |  | > 500 | < 200 |
| COc1cc(C(=O)NC[C@](O)(c2cc3c(c(-c4ccc5c(c4)OC(F)(F)O5)n2)OC[C@]3(C)C(N)=O)C2CC2)ccc1OC1CC1 [Example 830] |  | < 500 | < 200 |
| C[C@]1(C(N)=O)COc2c1cc([C@@](O)(CNC(=O)c1ccc3nn(C4CC4)cc3c1)C1CC1)nc2-c1ccc2c(c1)OC(F)(F)O2 [Example 831] |  | < 500 | < 200 |
| C[C@]1(C(N)=O)COc2c1cc([C@@](O)(CNC(=O)c1ccc3nn(C4(F)CC4)cc3c1)C(F)(F)F)nc2-c1ccc(F)cc1 [Example 832] |  | > 500 | < 200 |
| C[C@]1(C(N)=O)COc2c1cc([C@@](O)(CNC(=O)c1cc(F)c3nn(C4(F)CC4)cc3c1)C(F)(F)F)nc2-c1ccc(F)cc1 [Example 833] |  | > 500 | < 200 |
| C[C@]1(C(N)=O)COc2c1cc([C@@](O)(CNC(=O)c1cc(Cl)c3nn(C4(F)CC4)cc3c1)C(F)(F)F)nc2-c1ccc(F)cc1 [Example 834] |  | < 500 | < 200 |
| COc1cc(C(=O)NC[C@](O)(c2cc3c(c(-c4ccc5c(c4)OC(F)(F)O5)n2)OC[C@]3(C)C(N)=O)C2CC2)cc2cn(C3(F)CC3)nc12 [Example 835] |  | < 500 | < 200 |
| COc1cc(C(=O)NC[C@](O)(c2cc3c(c(-c4ccc(F)c(Cl)c4)n2)OC[C@]3(C)C(N)=O)C2CC2)cc2cn(C3(F)CC3)nc12 [Example 836] |  | < 500 | < 200 |
| COc1cc(C(=O)NC[C@](O)(c2cc3c(c(-c4ccc5c(c4)OC(F)(F)O5)n2)OC[C@]3(C)C(N)=O)C(F)(F)F)cc2cn(C3(F)CC3)nc12 [Example 837] |  | < 500 | < 200 |
| COc1cc(C(=O)NC[C@](O)(c2cc3c(c(-c4ccc5c(c4)OC(F)(F)O5)n2)OC[C@]3(C)C(N)=O)C2CC2)cc2cn(C3(Cl)CC3)nc12 [Example 838] |  | < 500 | < 200 |
| COc1cc(C(=O)NC[C@](O)(c2cc3c(c(-c4cc(Cl)ccc4F)n2)OC[C@]3(C)C(N)=O)C2CC2)cc2cn(C3(F)CC3)nc12 [Example 839] |  | < 500 | < 200 |
| COc1cc(C(=O)NC[C@](O)(c2cc3c(c(-c4ccc(Cl)cc4F)n2)OC[C@]3(C)C(N)=O)C2CC2)cc2cn(C3(F)CC3)nc12 [Example 840] |  | < 500 | < 200 |
